{"source": "patent US7820201B2", "about": "“System for manufacturing controlled release dosage forms, such as zero-order release profile dosage form manufactured by three-dimensional printing” (Massachusetts Institute of Technology, priority 2001, dated 2010)", "details": "for ko, best fit rate constant for equation 9: Co 280 mgAPI/cc, 3-D release, simulated intestinal fluid pH 7.4, 37° C.", "note": "Like-named read-outs stand apart in the source and are kept apart here.", "from_the_text": "The concentration C0 refers to the amount of API per unit volume in the dosage form after compression.\nEach of the API release curves in FIG. 16 was fit to Equation 9 by performing a least-squares fit between the empirical data and model. This was done to determine the relevance of the model, and to determine rate constants for the powder/API systems for later use. […] For this purpose, the rate constants in the two different directions were assumed to be equal.\nThe erosion rate constants are given in units of mg/hr cm^2 where mg is mg of API released into the dissolution fluid. R^2 is a statistical measure of correlation, with a value of 1 indicating perfect correlation.", "data": [{"molecule": "O=C(O)Cc1ccccc1Nc1c(Cl)cccc1Cl", "note": "[diclofenac sodium]", "values": [{"measurement": "linear erosion rate constant delta r/delta t", "setting": "70% Lactose: 30% HPMC conventional tablets", "value": 0.341, "unit": "mm/hr"}, {"measurement": "ko, best fit rate constant for equation 9", "setting": "Lactose:HPMC 60:40, 100 mg API", "value": 6.092, "unit": "mg/hr · cm^2"}, {"measurement": "ko, best fit rate constant for equation 9", "setting": "Lactose:HPMC 70:30, 100 mg API", "value": 9.540, "unit": "mg/hr · cm^2"}, {"measurement": "ko, best fit rate constant for equation 9", "setting": "Lactose:HPMC 80:20, 100 mg API", "value": 22.238, "unit": "mg/hr · cm^2"}]}]}
